Laboratory results as given in patent US8383406B2, “Method for stimulating the proliferation of differentiated cells belonging to the chondrogenic lineage” (Maco Parma, priority 2007, dated 2013).
Where a SMILES comes first, the peptide text is derived from it.

Legend:
[1] = system: human osteoarthritic chondrocytes; test: Calcein-AM test, viability and cytotoxicity of the cells; type: cell-based; conditions: 20 mM glycylglycine; cultured for 7 days; FIG. 3 curve C vs B
Description: (§1) The analyses were carried out using an FACScan cytometer equipped with ProCellQuest software, under the following experimental conditions: cells in suspension in a PBS isotonic buffer at pH 7.4, having an osmolality of 320-330 mOsmol/kg, with the number of cells analysed being 10,000.
The viability of the chondrocytes and the toxicity of the peptide were studied using the method developed by Bratosin et al (2005) and based on measuring the cellular esterase activity by means of calcein-AM.
Principle—Calcein-AM is a non-fluorescent acetic ester of fluorescein which passively passes through the membranes of the viable cells and is transformed by the cytosolic esterases into fluorescent calcein, which provides an intense green signal at 530 nm and which is retained only by the cells having an intact plasma membrane. […]
Operating procedure—The chondrocytes (4×10^5) in suspension in 200 μl of PBS buffer at pH 7.4 are incubated (45 min at 37° C.) in darkness, in the presence of 5 μM calcein-AM. Next, 0.5 ml of PBS buffer at pH 7.4 is added to the suspension, which is immediately analysed by flow cytometry in the FL1 logarithmic mode (number of cells counted: 10,000).
The intensity of the fluorescence on a logarithmic scale is plotted on the x-axis and the relative number of cells is plotted on the y-axis.

[2] = system: human osteoarthritic chondrocytes; test: Culturing of chondrocytes with or without glycylglycine, cell counting; type: cell-based
Description: The articular cartilage was sampled under sterile conditions from an osteoarthritic patient. The chondrocytes were isolated according to the methods of Green (1971) and Kuettner et al (1982), by enzymatic dissociation of the cartilage in Dulbecco's DMEM medium supplemented with a mixture of antibiotics and antimycotics (10 U/ml penicillin, 10 mg/ml streptomycin, 0.025 mg/ml amphotericin B), 2 mM L-glutamine and 10% foetal calf serum. The cartilage was cut up into small fragments and incubated (37° C.; 20 min) in the aforegoing DMEM medium containing 1 mg/ml of sheep testicular hyaluronidase. The fragments were next washed in PBS buffer (Phosphate Saline Buffer) with a pH of 7.4, and then incubated (60 min, at 37° C.) in the same buffer containing 0.25 g/100 mL trypsin. The fragments of cartilage previously washed with the PBS buffer with a pH of 7.4 were finally dissociated via incubation (15 hrs at 37° C.) in the DMEM medium containing 0.2% collagenase of Clostridium histolyticum and 10% foetal calf serum. The cells were collected by centrifugation (15 min, 3000 g), washed 2 times with the complete DMEM medium and cultured under the conditions hereinbelow. The chondrocytes were cultured on uncoated culture plates with polystyrene wells, at 37° C. for 1 to 7 days in a CO2 atmosphere (5%), in the absence or presence of 20 mM of glycylglycine, in a DMEM medium containing 10% foetal calf serum supplemented with a mixture of antibiotics and antimyotics (10 U/ml penicillin, 10 mg/ml streptomycin, 0.025 mg/ml amphotericin B) and 2 mM L-glutamine. With a view to subsequent cytometric analyses, the chondrocytes were detached by incubating for 3 minutes in a pH 7.4 PBS buffer solution of trypsin (0.25 g/100 ml) and EDTA (0.2 g/100 ml) kept at 37° C. After 3 washings with PBS buffer at pH 7.4, and after counting the cells using a Malassez chamber, the chondrocytes were subjected to various flow cytometry analyses described hereinbelow. FIGS. 1A and 1B show this large-scale production of the chondrocytes. […]

chondrocytes = test: Proliferation rate of the cells, glycylglycine concentration kinetics; type: cell-based, human; conditions: for Number of cells obtained / Proliferation rate after 3 days: 76,000 cells cultured for three days; for Proliferation rate/culture medium without Gly-Gly: three days
Description: The chondrocytes were cultured on uncoated culture plates with polystyrene wells, at 37° C. for 1 to 7 days in a CO2 atmosphere (5%), in the absence or presence of 20 mM of glycylglycine, in a DMEM medium containing 10% foetal calf serum supplemented with a mixture of antibiotics and antimyotics (10 U/ml penicillin, 10 mg/ml streptomycin, 0.025 mg/ml amphotericin B) and 2 mM L-glutamine. With a view to subsequent cytometric analyses, the chondrocytes were detached by incubating for 3 minutes in a pH 7.4 PBS buffer solution of trypsin (0.25 g/100 ml) and EDTA (0.2 g/100 ml) kept at 37° C. After 3 washings with PBS buffer at pH 7.4, and after counting the cells using a Malassez chamber, the chondrocytes were subjected to various flow cytometry analyses described hereinbelow. The table below compiles the proliferation rates of cells cultured in the absence or presence of various concentrations of glycylglycine. In order to carry out this test, 76,000 cells were cultured for three days under the culture conditions presented below.

[3] = system: human osteoarthritic chondrocytes; test: Cell proliferation test, PKH-26 flow cytometry; type: cell-based; conditions: 20 mM glycylglycine; cultured for 3 days; FIG. 2 curve C vs B
Description: as §1
Principle—Prior to being cultured, the chondrocytes were irreversibly labelled with a vital fluorescent membrane intercalator derived from arcidine orange, the PKH-26, with a view to following cell proliferation via flow cytometry, which entails a decrease in the overall fluorescence of the cells.
Operating procedure—10^6 chondrocytes in suspension in 1 ml of the “diluent C” of the labelling kit are added to 1 ml of a […] solution of PKH-26 in the same diluent. After 4 min of incubation at ambient temperature, the reaction is stopped by the addition of 2 ml of foetal calf serum and then, after incubating for one minute, 4 ml of complete DMEM medium are added. After centrifuging (5 min, 2000 g at 25° C.), the resulting sediment is washed 3 times with 10 ml of complete DMEM medium. The cells are then cultured for 3 days under the conditions described in example 1.2, detached from the support thereof according to the above-described method, placed back in suspension in a PBS buffer at pH 7.4 and analyzed by flow cytometry in the logarithmic mode FL2.

hybridoma cells = conditions: added to the culture medium; WO 01/46220; cited from earlier work

NCC(=O)NCC(=O)O [glycylglycine] (H-Gly-Gly-OH)
toxicity to / viability of the chondrocytes (calcein-AM) [1]: not toxic to the chondrocytes and does not reduce the viability thereof | proliferation rate in comparison with identical culture medium not supplemented with glycylglycine ([2]; 20 mM glycylglycine, DMEM medium, 7 days (FIGS. 1A and 1B), cell counting): multiplied by three | proliferation rate in comparison with non-supplemented culture medium (summary statement) ([2]; glycylglycine added to the chondrocyte culture medium): multiplied by three, and even by seven | dedifferentiation of the chondrocytes into fibroblasts ([2]; presence of glycylglycine in culture medium): blocks the dedifferentiation of the chondrocytes into fibroblasts | Number of cells obtained (chondrocytes; 20 mM Gly-Gly): 190,000 cells/ml | Proliferation rate after 3 days (chondrocytes; 20 mM Gly-Gly): 150% | Proliferation rate/culture medium without Gly-Gly (chondrocytes; 20 mM Gly-Gly): 2.11 | Number of cells obtained (chondrocytes; 50 mM Gly-Gly): 124,000 cells/ml | Proliferation rate after 3 days (chondrocytes; 50 mM Gly-Gly): 63% | Proliferation rate/culture medium without Gly-Gly (chondrocytes; 50 mM Gly-Gly): 1.38 | Number of cells obtained (chondrocytes; 100 mM Gly-Gly): 145,000 cells/ml | Proliferation rate after 3 days (chondrocytes; 100 mM Gly-Gly): 91% | Proliferation rate/culture medium without Gly-Gly (chondrocytes; 100 mM Gly-Gly): 1.61 | Number of cells obtained (chondrocytes; 200 mM Gly-Gly): 130,000 cells/ml | Proliferation rate after 3 days (chondrocytes; 200 mM Gly-Gly): 71% | Proliferation rate/culture medium without Gly-Gly (chondrocytes; 200 mM Gly-Gly): 1.44 | Number of cells obtained (chondrocytes; 500 mM Gly-Gly): 112,000 cells/ml | Proliferation rate after 3 days (chondrocytes; 500 mM Gly-Gly): 47% | Proliferation rate/culture medium without Gly-Gly (chondrocytes; 500 mM Gly-Gly): 1.24 | PKH-26 fluorescence / cell divisions compared with DMEM medium without glycylglycine [3]: the cell divisions were more numerous | proliferation of hybridoma cells in comparison with non-supplemented culture medium (hybridoma cells): only very slightly increases

NCC(=O)O [glycine monomer, glycine, reference compound]
proliferation of hybridoma cells in comparison with non-supplemented culture medium (hybridoma cells): only very slightly increases
